# Laboratory results reported in patent US20020120001A1, “Compositions containing tryptamines, cartenoids and tocotrienols and having synergistic antioxidant effect” (Ashni Naturaceuticals, Inc., priority 2000, published 2002).
# Assay: peroxy radical scavenging activity (BODIPY 581/591 C11 fluorescence with AMVN radical generator, microplate; Median Effect/CalcuSyn analysis)
# [1] = Example 2, concentration of the named component in the 1:1 melatonin and natural astaxanthin mixture
# [2] = Example 4, component of the melatonin and mixed tocotrienols mixture
# Method: Measurement of peroxy radical scavenging activity of the individual compounds and combinations was performed essentially as described by Naguib (Analytical Biochemistry(1998) 265:290-298) with modifications to allow the assay to be performed on a microplate. The fatty acid indicator 4,4difluoro-5-(4-phenuyl-1,3-butadienyl)-4-bora-3a-4a-diaza-s-indacene-3-undecanate (BODIPY 581/591 C11) was purchased from Molecular Probes (Eugene, Oreg.). As a peroxy radical generator, 2,2′-azobis-2,4-dimethyl valeronitrile (AMVN) was used and obtained from WAKO Chemicals (Richmond, Va.). All standards were of the highest purity commercially available. Additionally, the solvents were of HPLC grade.
# Fluorescence measurements were performed using a Packard FluoroCount microplate fluorometer equipped with a temperature-controlled plate holder. All measurements were preformed in a 96-well polypropylene plate with stirring.
# Reactions in octane: butyronitrile (9:1, v/v) were carried out at 30° C. All fluorescence measurements were recorded every 15 minutes for 1 hour at excitation wavelengths of 570 nm, with emission at 620 nm. The net protection (area under the curve, AUC) by the antioxidant sample was calculated using the trapezoid method.
# The final reaction mixture (200 μl) for the assay contained 0.5 μg/mL BODIPY 581/591C11 and 0.26 M AMVN in octane:butyronitrile (9:1, v/v). Stock solutions of the test samples were made up in chloroform and 6 μL was added to the reaction mixture to achieve the stated concentrations. The reaction was initiated by the addition of the AMVN fluorometric readings were then recorded every 15 minutes for one hour.
# Synergy between melatonin and astaxanthin was assessed using CalcuSyn (BIOSOFT, biosoft.com). This statistical package performs multiple drug dose-effect calculations using the Median Effect methods described by T-C Chou and P. Talaly (Trends Pharmacol. Sci. 4:450-454), hereby incorporated by reference.
# Cm is determined from the x-intercept of the median-effect plot. The fraction affected by the concentration of the test material is fa and the fraction unaffected by the concentration is fu (fu=1−fa). The exponent m is the parameter signifying the sigmoidicity or shape of the dose-effect curve. It is estimated by the slope of the median-effect plot.
# The median-effect plot is a plot of x=log(C) vs y=log(fa/fu) and is based on the logarithmic form of Chou's median-effect equation. The goodness of fit for the data to the median-effect equation is represented by the linear correlation coefficient r of the median-effect plot.
# Synergy of test components was quantified using the combination index (CI) parameter. The CI of Chou-Talaly is based on the multiple drug-effect and is derived from enzyme kinetic models (Chou, T.-C. and Talalay, P. (1977) A simple generalized equation for the analysis of multiple inhibitions of Michaelis-Menten kinetic systems. J. Biol. Chem. 252:6438-6442). The equation determines only the additive effect rather than synergism or antagonism. However, we define synergism as a more than the expected additive effect, and antagonism as a less than the expected additive effect as proposed by Cho and Talalay in 1983 (Trends Pharmacol. Sci. (1983) 4:450-454).
# Dose-response curves were described with each test article separately and then in a two-way combination. For the individual dose-response curves, concentrations of melatonin included 100, 500 and 1000 μM, while the concentrations of astaxanthin were 49, 98, 490, and 980 μM.
compound,measurement,setting,value
"CC1=C(/C=C/C(C)=C/C=C/C(C)=C/C=C/C=C(C)/C=C/C=C(C)/C=C/C2=C(C)C(=O)[C@@H](O)CC2(C)C)C(C)(C)C[C@H](O)C1=O [Astaxanthin alone, 3, 3′-dihydroxy-β,β-carotene-4, 4′-dieto-β-carotene]",IC75,"Example 1, listed as of test material alone",185 (107-319) μM
same,IC50,"Example 5, test material alone",148 (94-232) μg test/mL
"CC1=C[C@H](O)CC(C)(C)[C@H]1/C=C/C(C)=C/C=C/C(C)=C/C=C/C=C(C)/C=C/C=C(C)/C=C/C1=C(C)C[C@@H](O)CC1(C)C [Lutein alone, lutein]",IC50,"Example 3, test material alone",61 µM
"COc1ccc2[nH]cc(CCNC(C)=O)c2c1 [Melatonin alone, N-acetyl-5-methoxytryptamine]",IC50,"Example 1, test material alone, 95% confidence interval in parentheses",284 µM
same,increase in antioxidant potency,"Example 2, component in 1:1 melatonin and natural astaxanthin combination versus alone",3.2 fold
same,IC50,[1],38 µg/mL
same,IC75,[1],54 µg/mL
same,IC90,[1],77 µg/mL
same,IC50,"Example 2, test material alone",120 (105-137) μg/mL
same,IC50,"Example 3, test material alone",283 µM
same,increase in antioxidant potency,"Example 4, component in 1:1 melatonin and mixed tocotrienols combination versus alone",3.1 fold
same,concentration for 50 percent inhibition of peroxy radical formation,[2],17 µg/mL
same,concentration for 75 percent inhibition of peroxy radical formation,[2],21 µg/mL
same,concentration for 90 percent inhibition of peroxy radical formation,[2],26 µg/mL
same,IC50,"Example 4, test material alone",53 (25-112) μg test/mL
same,IC50,"Example 5, test material alone",53 (25-112) μg test/mL
"CC1=C(/C=C/C(C)=C/C=C/C(C)=C/C=C/C=C(C)/C=C/C=C(C)/C=C/C2=C(C)CCCC2(C)C)C(C)(C)CCC1 [β-Carotene alone, β-carotene]",IC50,"Example 3, test material alone",366 µM
